{
  "source": "patent US20020065213A1",
  "about": "“METHODS AND COMPOSITIONS FOR NONVIRAL GENE DELIVERY” (priority 1998, published 2002)",
  "key": {"murine B 16 cells": {"system": "murine B 16 cells", "test": "Inhibition of in vitro CLDC-mediated transfection (luciferase) by polysaccharide pretreatment"}, "ICR mice": {"system": "ICR mice", "test": "Host pretreatment before i.v. CLDC or naked DNA, tissue luciferase activity", "type": "in vivo, mouse", "procedure": "Plasmid: p4241 (HCMV-luciferase, see Liu et al., 1997).\nLiposomes: DOTIM:chol MLV in 1:1 molar ratio.\nDNA:Liposome Ratio: liposome:plasmid 1:16 (μg plasmid DNA to nanomoles total lipid).\nPretreatment: Individual mice in groups of 5 received either 200 μl of D5W only by IV injection, 1 mg dexamethasone (Sigma) in 200 μl D5W by IV tail vein injection, 250 μg Ticlopidine (Sigma) dissolved in 200 μl D5W by IV injection, 175 μg ammonium chloride (Fisher) dissolved in 1000 μl D5W by IP injection, respectively, four hours before IV injection of CLDC. For 4-APP pretreatment, a group of 5 mice were IP injected with 1.5 mg of 4-Aminopyrazolo(3,4d)-pyrimidine (Sigma, A2630) dissolved in 1 ml 0.01 M sodium phosphate, pH 2.5, daily for three days before receiving an IV injection of p4241-containing CLDC as described above. Another group of 5 mice received 1 ml 0.01 M Sodium Phosphate, pH 2.5 solution by IP injection daily for three days before receiving an injection of IV CLDC as above, thus serving as control for 4-APP pretreatment group.\nDNA dose: 40 μg plasmid DNA in 200 μl of 5% dextrose in water (D5@) was injected by tail vein per mouse.\nAnimals: ICR mice:female, 25 grams (Simonsen Labs, Gilroy, Calif.).\nQuantitation of luciferase: Twenty-four hours after injection of CLDC, mice were sacrificed in a CO2 chamber, and lungs, heart, spleen and liver were collected and assayed for luciferase activity. Relative light units were converted to luciferase activity, and an unpaired, two side Student's t test applied for statistical analysis of potential differences between groups as described previously (Liu et al., 1997).\nIn another experiment, the effect of pretreatment on subsequent expression of the same plasmids delivered as naked DNA was examined. Pretreated animals were injected with 6.25 mg of mannitol (Sigma, MO) in 200 microliters of water 2 hours or 24 hours prior to iv administration of the p4241 luciferase vector as naked DNA in water, 50% glycerol or D5W. Control animals received water alone as a pretreatment. […]"}, "ICR female mice": {"system": "ICR female mice", "test": "Pretreatment of mice before intravenous CLDC (p4241): luciferase, Southern analysis, rhodamine-lipid", "type": "in vivo, mouse", "procedure": "In vivo transfections. Each mouse received 50 μg p4241 complexed to DOTIM:cholesterol MLV containing 1 mole % rhodamine-PE at a ratio of 1:16 (μg DNA per nmole total lipid). Approximately 25 g ICR female mice (Simonson, Gilroy, Calif.) received 200 μl of CLDC intravenously by tail vein injection. Pretreatments of mice were also by intravenous tail vein injections. Fucoidan, dissolved in phosphate buffered saline (PBS), was pre-injected at a dosage of 500 μg per mouse 0, 1, 2, 10, 24, or 48 hrs prior to CLDC injection. Heparinase I and III (Sigma) were dissolved in 0.15 M sodium chloride at a concentration of 75 units per 100 μl, and 100 μl per mouse were injected 15 minutes prior to injection of CLDC. Control mice were preinjected at appropriate times with either PBS or 0.15 M sodium chloride. As an additional control, heparinase I was boiled for 10 minutes to denature and deactivate the enzyme prior to pre-injection. Mice were harvested 24 hours post-CLDC injection, and pieces of lung, liver, heart, and spleen were placed in 1X lysis buffer (Promega, Madison, Wis.) on ice for luciferase assays (Liu et al., 1997). Samples of liver and lung were frozen on dry ice prior to Bligh Dyer extractions for rhodamine-liposome fluorescence analysis and isolation of DNA for Southern analysis as described (Liu et al., 1997)."}, "B16 cells, PPC-1 cells": {"system": "B16 cells, PPC-1 cells", "test": "Effect on calcium phosphate, adenoviral and electroporation transfection in vitro", "type": "cell-based", "procedure": "B16 cells were electroporated with p4241 as per BioRad (Hercules, Calif.) instructions for the GenePulser II. Calcium phosphate transfections were performed as described in the manufacturer's instructions (Gibco BRL, Grand Island, N.Y.). Adenoviral infection of PPC-1 cells was performed as previously described (Graham and […], 1991)."}, "B16 cells": {"system": "B16 cells", "test": "DNA uptake by cells after CLDC transfection (luciferase, Southern analysis of nuclear and total DNA)", "type": "cell-based, mouse", "procedure": "Southern analysis. Isolation of total DNA from mouse tissues was performed as described (Liu et al., 1997). Approximately 2×10^6 B16 cells were cultured in 100 mm dishes for each DNA extraction from cultured cells. Two hundred nanograms of DNA per lane were fractionated on 1% agarose/1X TAE gels overnight. Blotting onto Hybond membrane (Amersham, Arlington Heights, Ill.), prehybridization, hybridization, and washes were performed as described (Sambrook et al., 1989). A 1.2 kb HindIII/EcoRV gel-purified fragment of luciferase from p4241 was radioactively labelled using the Random Primed DNA Labeling Kit (Boehringer Mannheim, Indianapolis, Ind.). Nuclei were isolated from 2×10^6 B16 cells as described (Sambrook et al., 1989), and lysed in NP40 lysis buffer (10 mM Tris, pH 7.4, 10 mM sodium chloride, 3 mM magnesium chloride, and 0.5% nonidet P-40). Nuclear DNA was then isolated from washed nuclei using the same technique as for total DNA isolation (Sambrook et al., 1989).\nFucoidan inhibited CLDC-mediated transfection in vitro by blocking DNA uptake by cells. Nuclei were isolated from cells untreated or pretreated with fucoidan and subsequently transfected with CLDC, and nuclear DNA was assayed for the presence of the luciferase plasmid used in making the complex. The nuclei of cells untreated with fucoidan contained luciferase plasmid, as expected from the high levels of luciferase activity observed in untreated cells. Therefore, DNA did traverse the cell membranes of untreated cells."}, "[1]": {"details": "iv 15 minutes before CLDC injection"}, "[2]": {"details": "cells pretreated for 30 minutes with 1 μM"}},
  "data": [
    {"compound": "dextran sulfate", "values": [
      {"measurement": "CLDC transfection in vitro after pretreatment of cells", "setting": "murine B 16 cells", "result": "largely blocked"},
      {"measurement": "concentration sufficient to block transfection", "setting": "murine B 16 cells; murine B 16 cells", "result": 10, "unit": "nM"}
    ]},
    {"compound": "OC[C@@H](O)[C@@H](O)[C@H](O)[C@H](O)CO", "note": "[mannitol]", "values": [
      {"measurement": "in vivo expression of luciferase from p4241 versus controls", "setting": "ICR mice; 6.25 mg 2 hours prior to iv naked DNA", "result": "significantly higher"},
      {"measurement": "luciferase expression", "setting": "ICR mice; 6.25 mg 24 hours prior to p4241", "result": "Some increase"}
    ]},
    {"compound": "heparinase I", "values": [
      {"measurement": "reporter plasmid DNA in lungs, fold less than control lungs (Southern analysis)", "setting": "ICR female mice; [1]", "result": 2, "unit": "fold"},
      {"measurement": "rhodamine labelled lipid recovered from lungs", "setting": "ICR female mice; [1]", "result": "significantly decreased the levels of rhodamine labelled lipid"},
      {"measurement": "transfection efficiency of CLDC (luciferase) in lungs, hearts and spleens", "setting": "ICR female mice; [1]", "result": "significantly decreased"}
    ]},
    {"compound": "Nc1ncnc2[nH]ncc12", "note": "[Plasmid 4-APP, 4-Aminopyrazolo(3,4d)-pyrimidine]", "values": [
      {"measurement": "luciferase activity versus buffer-pretreated mice", "setting": "ICR mice; preinjection before iv CLDC (p4241), 24 hours after CLDC", "result": "significantly increased luciferase activity"}
    ]},
    {"compound": "fucoidan", "values": [
      {"measurement": "transfection by calcium phosphate", "setting": "B16 cells, PPC-1 cells", "result": "inhibited the transfection"},
      {"measurement": "luciferase DNA in nuclei", "setting": "B16 cells; [2]", "result": "no luciferase DNA in their nuclei"},
      {"measurement": "luciferase expression of cells", "setting": "B16 cells; [2]", "result": "did not express luciferase"},
      {"measurement": "Southern analysis of total DNA from whole cell extracts", "setting": "B16 cells; pretreated cultured cells", "result": "failed to show evidence of any DNA crossing the cell membranes"},
      {"measurement": "luciferase activity in lung and heart tissues", "setting": "ICR female mice; 500 μg per mouse iv, 1 hour before CLDC", "result": "drastic reductions in luciferase activity"},
      {"measurement": "CLDC mediated transfection of lung cells", "setting": "ICR female mice; 10 hours post exposure", "result": "still inhibits CLDC mediated transfection of lung cells"},
      {"measurement": "rhodamine-lipid found in the lung and liver", "setting": "ICR female mice; one hour pretreatment", "result": "significantly decreased levels of rhodamine-lipid"},
      {"measurement": "p4241 plasmid in total DNA from lungs and livers (Southern analysis)", "setting": "ICR female mice; pretreated for 1 hour", "result": "decreased levels of p4241 plasmid"},
      {"measurement": "magnitude of luciferase depression in tissues", "setting": "ICR female mice; pretreated for 1 hour in vivo", "result": "approximately 100 fold"},
      {"measurement": "decrease in p4241 plasmid in nuclear DNA isolated from lungs", "setting": "ICR female mice; treated versus untreated animals", "result": 3, "unit": "fold"},
      {"measurement": "CLDC transfection in vitro after pretreatment of cells", "setting": "murine B 16 cells", "result": "largely blocked"},
      {"measurement": "effect on CLDC-mediated transfection, cells pretreated", "setting": "murine B 16 cells; 10 nM", "result": "little effect"}
    ]},
    {"compound": "heparin", "values": [
      {"measurement": "CLDC-mediated gene transfer following intravenous injection of CLDC into mice", "setting": "ICR female mice; mouse, in vivo, iv", "result": "abolished CLDC-mediated gene transfer"},
      {"measurement": "CLDC transfection in vitro after pretreatment of cells", "setting": "murine B 16 cells", "result": "largely blocked"}
    ]},
    {"compound": "dextran", "values": [
      {"measurement": "CLDC transfection at high concentrations", "setting": "murine B 16 cells", "result": "significant elevation of transfection"},
      {"measurement": "CLDC transfection in vitro after pretreatment of cells", "setting": "murine B 16 cells", "result": "failed to inhibit transfection"}
    ]}
  ]
}
